Marks after values point to notes of the source that are not given here. *1 amine or outer side, *2 acyl side, *3 side chain or, on linkers, in order; H or OH if unused. Where a SMILES comes first, the peptide text is derived from it. Bridges are numbered along the chain shown (N, C = ends). [ ]: non-standard residue; d: D form. Thz = O=C(O)[C@@H]1CSCN1; X1 = O=C(CCC[*:2])[*:1]; Mpa = O=C(O)CCS
Experiments:
[1] = Antidiuretic assay in rats, calibrated against arginine-vasopressin; format: in vivo, male Sprague-Dawley rats; conditions: for Peak Potency (antidiuretic activity): 200g male Sprague-Dawley rats, calibrated against arginine-vasopressin; for Mean Peak Potency (Product) F: antidiuretic activity, peak potency multiplied by F; for Ratio of Half-Life of Compound to Parent Half-Life (F): antidiuretic response, comparator not given; for antidiuretic activity (in words): comment on Table 4
[2] = Pressor assay in rats, calibrated against arginine-vasopressin; format: in vivo, male Sprague-Dawley rats; conditions: for Peak Potency (pressor activity): 200g male Sprague-Dawley rats, calibrated against arginine-vasopressin; for Mean Peak Potency (Product) F: pressor activity, peak potency multiplied by F; for Ratio of Half-Life of Compound to Parent Half-Life (F): pressor response; for pressor activity (in words): comment on Table 3
Factor VIII = Factor VIII release, clotting assay in male canine citrated plasma; format: in vivo; conditions: for Factor VIII Releasing Activity: male canine citrated plasma, calibrated against desmopressin
Protocol: Pressor and antidiuretic assays of the compounds of Examples I-IV were carried out in 200g body weight, male Sprague-Dawley rats using the techniques reported by Schaechtelin et al in "Enhancement of the Activity of Angiotensin II by Certain Cations," Molec. Pharmacol., 10, 57-67 (1974) and Cort et al in "Role of the Disulfide Bridge and the C-Terminal Tripeptide in the Anti-diuretic Action of Vasopressin in Man and the Rat", Kidney Internat. , 8, 292-302 (1975), with calibration of responses against a 3-point curve using highly purified arginine-vasopressin of known activity. Similar tests were performed on known vasopressin analogs for purposes of comparison. In addition, the release of Factor VIII by the compounds of Examples I-IV was tested in male canine citrated plasna using the clotting assay described by Prowse et al, in Brit. J. Haematol., 41, 437 (1979), and the results were calibrated against the Factor VIII releasing activity of desmopressin. In all cases, the half-lives of the responses were compared to the standard at equi-peak-potent levels.

[3] = no comparator footnote (parent itself)
[4] = as compared to 1-desamino-[8-Lys]-vasopressin (footnote ***)

| SMILES | Peak Potency (antidiuretic activity) [1] | Mean Peak Potency (Product) F [1] | Ratio of Half-Life of Compound to Parent Half-Life (F) [1] | Peak Potency (pressor activity) [2] | Mean Peak Potency (Product) F [2] | Ratio of Half-Life of Compound to Parent Half-Life (F) ([2]; as compared to [2-Phe,8-Lys]-vasopressin) | Ratio of Half-Life of Compound to Parent Half-Life (F) [2, 3] | antidiuretic activity (in words) [1] | Factor VIII Releasing Activity (Factor VIII) | pressor activity (in words) [2] | Ratio of Half-Life of Compound to Parent Half-Life (F) [2, 4] | Ratio of Half-Life of Compound to Parent Half-Life (F) ([2]; as compared to [8-Lys]-vasopressin (footnote *)) | Factor VIII releasing activity (in words) (Factor VIII; comment on Table 5) |
| --- | --- | --- | --- | --- | --- | --- | --- | --- | --- | --- | --- | --- | --- |
| NCCCC[C@H](NC(=O)[C@@H]1CCCN1C(=O)[C@@H]1CSSCCC(=O)N[C@@H](Cc2ccccc2)C(=O)N[C@@H](Cc2ccccc2)C(=O)N[C@@H](CCC(N)=O)C(=O)N[C@@H](CC(N)=O)C(=O)N1)C(=O)NCC(N)=O [1-desamino-[2-Phe, 8-Lys]-vasopressin, 1-desamino-[2-Phe, 8-Lys]vasopressin, reference compound] ([Mpa]FFQNCPKG-NH2; disulfide 1-6) | 30 IU/mg | 45 | 1.5 | 45 IU/mg | 67.5 | 1.5** |  |  |  |  |  |  |  |
| NCCCC[C@H](NC(=O)[C@@H]1CCCN1C(=O)[C@@H]1CSSC[C@H](N)C(=O)N[C@@H](Cc2ccc(O)cc2)C(=O)N[C@@H](Cc2ccccc2)C(=O)N[C@@H](CCC(N)=O)C(=O)N[C@@H](CC(N)=O)C(=O)N1)C(=O)NCC(N)=O [[8-Lys]-vasopressin, reference compound] | 200 IU/mg | 220 | 1.0 | 220 IU/mg | 220 |  | 1.0 |  |  |  |  |  |  |
| NCC(=O)NCC(=O)NCC(=O)NCCCC[C@H](NC(=O)[C@@H]1CCCN1C(=O)[C@@H]1CSSCCC(=O)N[C@@H](Cc2ccc(O)cc2)C(=O)N[C@@H](Cc2ccccc2)C(=O)N[C@@H](CCC(N)=O)C(=O)N[C@@H](CC(N)=O)C(=O)N1)C(=O)NCC(N)=O [Example II, 1-Desamino-[8-N^ε-Lys(Gly-Gly-Gly)]-Vasopressin] | 8 IU/mg | 44 | 5.5 | 15 IU/mg | 157.5 |  |  | low antidiuretic activity | 104% | prolonged pressor activity of higher potency than that of tGLVP | 10.5*** |  |  |
| NCCCC[C@H](NC(=O)[C@@H]1CCCN1C(=O)[C@@H]1CSSC[C@H](NC(=O)CNC(=O)CNC(=O)CN)C(=O)N[C@@H](Cc2ccc(O)cc2)C(=O)N[C@@H](Cc2ccccc2)C(=O)N[C@@H](CCC(N)=O)C(=O)N[C@@H](CC(N)=O)C(=O)N1)C(=O)NCC(N)=O [tGLVP, N^c<-glycyl-glycyl-glycyl-8-lysine-vasopressin, reference compound] (H-GGGCYFQNCPKG-NH2; disulfide 4-9) | 1.1 IU/mg | 9.2 | 4.0 | 2.1 IU/mg | 8.4 |  |  |  |  |  |  | 4.0* |  |
| NCCCC[C@H](NC(=O)[C@@H]1CCCN1C(=O)[C@@H]1CSSC[C@H](N)C(=O)N[C@@H](Cc2ccccc2)C(=O)N[C@@H](Cc2ccccc2)C(=O)N[C@@H](CCC(N)=O)C(=O)N[C@@H](CC(N)=O)C(=O)N1)C(=O)NCC(N)=O [[2-Phe, 8-Lys]-vasopressin, reference compound] (H-CFFQNCPKG-NH2; disulfide 1-6) | 25 IU/mg | 25 | 1.0 | 80 IU/mg | 80 |  | 1.0 |  |  |  |  |  |  |
| CC(C)C[C@H](N)C(=O)NCCCC[C@H](NC(=O)[C@@H]1CSCN1C(=O)[C@@H]1CSCCCC(=O)N[C@@H](Cc2ccc(O)cc2)C(=O)N[C@@H](Cc2ccccc2)C(=O)N[C@@H](CCC(N)=O)C(=O)N[C@@H](CC(N)=O)C(=O)N1)C(=O)NCC(N)=O [Example IV, 1-Desamino-1-monocarba-[7-thioPro, 8-NE-Lys(Leu)]-Vasopressin] (YFQNC[Thz]K(Leu)G-NH2; linker N-5 via X1) | 450 IU/mg | 3015 | 6.7 | 350 IU/mg | 3675 |  |  | considerable antidiuretic activity | 285% | prolonged pressor activity of higher potency than that of tGLVP | 10.5*** |  | significant activity in releasing Factor VIII |
